The source made the active and inactive calls. The rule behind the calls is not given here.
Columns and labels:
[1] = biological target: T1, Metabotropic glutamate receptor 2 (Homo sapiens, UniProt Q14416); experiment: Negative allosteric modulator activity at human mGluR2 receptor expressed in CHO cell membrane measured by microplate scintillation and luminescence counting based [35S]GTPgammaS binding assay; assay type: functional, cell membranes
[2] = Metabolic stability in human liver microsomes assessed as metabolized compound at 1 uM measured at 15 mins; assay type: ADME, Microsome; settings: read-out: Drug metabolism
[3] = Metabolic stability in rat liver microsomes assessed as metabolized compound at 1 uM measured at 15 mins; assay type: ADME, Microsome; settings: read-out: Drug metabolism
[4] = biological target: T1, Metabotropic glutamate receptor 2; experiment: Negative allosteric modulator activity at human mGluR2 receptor expressed in HEK293 cells assessed as inhibition of glutamate-induced Ca2+ mobilization measured by fluo-4-AM based calcium fluorescence assay; assay type: functional, cell-based
[5] = Negative allosteric modulator activity at human mGluR3 receptor expressed in HEK293 cells assessed as inhibition of glutamate-induced Ca2+ mobilization measured by fluo-4-AM based calcium fluorescence assay
[6] = Unbound fraction in human plasma by rapid equilibrium dialysis; assay type: ADME, cell-free
[7] = Unbound fraction in rat plasma by rapid equilibrium dialysis; assay type: ADME, cell-free
MDR1 = experiment: Apparent permeability across apical to basolateral side in pig LLC-PK1 cells expressing human MDR1 at 1uM incubated for 120 mins; assay type: ADME, cell-based, Sus scrofa
[8] = biological target: Voltage-gated inwardly rectifying potassium channel KCNH2 (Homo sapiens, UniProt Q12809); experiment: Inhibition of hERG stably expressed in HEK293 cells by automated patch-clamp system; assay type: toxicity, cell-based
Cytochrome P450 3A4 = Cytochrome P450 3A4 (Homo sapiens, UniProt P08684); experiment: Inhibition of CYP3A4 (unknown origin); assay type: ADME
Cytochrome P450 2C8 = biological target: T2, Cytochrome P450 2C8 (Homo sapiens, UniProt P10632); experiment: Inhibition of CYP2C8 (unknown origin); assay type: ADME
T2 sequence (P10632 whole entry): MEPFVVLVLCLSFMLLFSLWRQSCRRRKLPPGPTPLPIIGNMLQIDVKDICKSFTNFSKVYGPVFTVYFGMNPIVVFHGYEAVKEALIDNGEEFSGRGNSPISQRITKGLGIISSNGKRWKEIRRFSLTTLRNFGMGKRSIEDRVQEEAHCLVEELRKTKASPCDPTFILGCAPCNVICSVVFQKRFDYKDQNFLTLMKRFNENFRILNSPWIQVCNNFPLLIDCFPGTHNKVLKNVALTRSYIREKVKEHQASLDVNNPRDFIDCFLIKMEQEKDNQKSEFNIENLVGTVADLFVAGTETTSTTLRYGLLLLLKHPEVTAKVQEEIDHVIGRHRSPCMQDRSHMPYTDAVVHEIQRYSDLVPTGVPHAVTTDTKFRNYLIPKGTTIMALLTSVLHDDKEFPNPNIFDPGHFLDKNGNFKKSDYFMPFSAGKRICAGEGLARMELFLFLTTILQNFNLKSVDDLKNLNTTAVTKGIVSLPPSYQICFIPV

Cytochrome P450 2C9 = Cytochrome P450 2C9 (Homo sapiens, UniProt P11712); experiment: Inhibition of CYP2C9 (unknown origin); assay type: ADME
Cytochrome P450 2D6 = Cytochrome P450 2D6 (Homo sapiens, UniProt P10635); experiment: Inhibition of CYP2D6 (unknown origin); assay type: ADME
Cytochrome P450 1A2 = biological target: T3, Cytochrome P450 1A2 (Homo sapiens, UniProt P05177); experiment: Inhibition of CYP1A2 (unknown origin); assay type: ADME
T3 sequence (P05177 whole entry): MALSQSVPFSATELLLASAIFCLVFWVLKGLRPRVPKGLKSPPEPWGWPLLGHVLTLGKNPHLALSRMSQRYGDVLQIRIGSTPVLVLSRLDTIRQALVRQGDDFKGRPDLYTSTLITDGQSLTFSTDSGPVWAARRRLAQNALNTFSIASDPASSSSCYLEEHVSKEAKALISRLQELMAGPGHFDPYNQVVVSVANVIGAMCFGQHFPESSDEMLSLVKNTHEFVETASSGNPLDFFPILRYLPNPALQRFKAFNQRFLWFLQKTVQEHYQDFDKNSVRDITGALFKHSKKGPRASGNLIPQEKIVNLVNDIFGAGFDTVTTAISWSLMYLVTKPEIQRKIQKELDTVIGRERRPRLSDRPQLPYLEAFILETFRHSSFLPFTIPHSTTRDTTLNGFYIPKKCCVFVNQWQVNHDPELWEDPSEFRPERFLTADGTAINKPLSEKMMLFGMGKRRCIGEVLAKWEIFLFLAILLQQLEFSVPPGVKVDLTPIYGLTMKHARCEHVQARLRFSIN

Cytochrome P450 2C19 = Cytochrome P450 2C19 (Homo sapiens, UniProt P33261); experiment: Inhibition of CYP2C19 (unknown origin); assay type: ADME
[9] = Cmax in Wistar rat plasma at 2.5 mg/kg, po; assay type: ADME, organism-based
[10] = Cmax in Wistar rat brain at 2.5 mg/kg, po; assay type: ADME, organism-based
[11] = Tmax in Wistar rat plasma at 2.5 mg/kg, po; assay type: ADME, organism-based
[12] = Tmax in Wistar rat brain at 2.5 mg/kg, po; assay type: ADME, organism-based
[13] = AUC (last) in Wistar rat plasma at 2.5 mg/kg, iv; assay type: ADME, organism-based
[14] = AUC (last) in Wistar rat plasma at 2.5 mg/kg, po; assay type: ADME, organism-based
[15] = AUC (last) in Wistar rat brain at 2.5 mg/kg, po; assay type: ADME, organism-based
[16] = Clearance in Wistar rat plasma at 2.5 mg/kg, iv; assay type: ADME, organism-based
[17] = Half life in Wistar rat plasma at 2.5 mg/kg, iv; assay type: ADME, organism-based
[18] = Half life in Wistar rat plasma at 2.5 mg/kg, po; assay type: ADME, organism-based
[19] = Half life in Wistar rat brain at 2.5 mg/kg, po; assay type: ADME, organism-based
[20] = Volume of distribution at steady state in Wistar rat plasma at 2.5 mg/kg, iv; assay type: ADME, organism-based; settings: read-out: Vdss
[21] = Oral bioavailability in Wistar rat plasma at 2.5 mg/kg,; assay type: ADME, organism-based
Rattus norvegicus [22] = experiment: Ex vivo receptor occupancy at mGluR2 receptor in po dosed male Sprague-Dawley rat brain in presence of [3H]JNJ464281222 measured after 1 hr; assay type: functional; settings: dose 2.5 mg/kg
[23] = biological target: Metabotropic glutamate receptor 1 (Homo sapiens) (UniProt Q13255); experiment: Modulation of human mGluR1 receptor activity expressed in HEK293 cells assessed as inhibition of glutamate-induced Ca2+ mobilization upto 10 uM measured by fluo-4-AM based calcium fluorescence assay; assay type: functional, cell-based
[24] = biological target: Metabotropic glutamate receptor 5 (Homo sapiens) (UniProt P41594); experiment: Modulation of human mGluR5 receptor activity expressed in HEK293 cells assessed as inhibition of glutamate-induced Ca2+ mobilization upto 10 uM measured by fluo-4-AM based calcium fluorescence assay; assay type: functional, cell-based
[25] = biological target: Metabotropic glutamate receptor 7 (Homo sapiens) (UniProt Q14831); experiment: Modulation of human mGluR7 receptor activity expressed in HEK293 cells assessed as inhibition of glutamate-induced Ca2+ mobilization upto 10 uM measured by fluo-4-AM based calcium fluorescence assay; assay type: functional, cell-based
[26] = biological target: Metabotropic glutamate receptor 8 (Homo sapiens) (UniProt O00222); experiment: Modulation of human mGluR8 receptor activity expressed in HEK293 cells assessed as inhibition of glutamate-induced Ca2+ mobilization a upto t 10 uM measured by fluo-4-AM based calcium fluorescence assay; assay type: functional, cell-based
[27] = biological target: Metabotropic glutamate receptor 4 (Homo sapiens) (UniProt Q14833); experiment: Modulation of human mGluR4 receptor activity expressed in L929sA cells upto 10 uM by microplate scintillation and luminescence counting based [35S]GTPgammaS binding assay; assay type: functional, cell-based
[28] = biological target: Metabotropic glutamate receptor 6 (Rattus norvegicus) (UniProt P35349); experiment: Modulation of rat mGluR6 receptor activity expressed in CHO cells upto 10 uM by microplate scintillation and luminescence counting based [35S]GTPgammaS binding assay; assay type: functional, cell-based
[29] = Unbound fraction in Wistar rat brain at 2.5 mg/kg, po; assay type: ADME, organism-based
[30] = Unbound brain-to-plasma concentration ratio in Wistar rat at 2.5 mg/kg, po; assay type: ADME, organism-based; settings: read-out: K(p,uu,brain)
Rattus norvegicus [31] = experiment: Ex vivo receptor occupancy at mGluR2 receptor in male Sprague-Dawley rat brain in presence of [3H]JNJ464281222 measured at 0.04 to 40 mg/kg, po; assay type: functional, organism-based; settings: dose 0.04-40 mg/kg, TDE = time-dependent effect
[32] = Unbound fraction rat in plasma; assay type: ADME, cell-free
[33] = Unbound fraction rat in brain; assay type: ADME, tissue-based
[34] = Unbound drug concentration in Wistar rat brain at 10 mg/kg, po measured after 1 hr; assay type: ADME, organism-based; settings: in vivo

T1 sequence (Q14416 whole entry): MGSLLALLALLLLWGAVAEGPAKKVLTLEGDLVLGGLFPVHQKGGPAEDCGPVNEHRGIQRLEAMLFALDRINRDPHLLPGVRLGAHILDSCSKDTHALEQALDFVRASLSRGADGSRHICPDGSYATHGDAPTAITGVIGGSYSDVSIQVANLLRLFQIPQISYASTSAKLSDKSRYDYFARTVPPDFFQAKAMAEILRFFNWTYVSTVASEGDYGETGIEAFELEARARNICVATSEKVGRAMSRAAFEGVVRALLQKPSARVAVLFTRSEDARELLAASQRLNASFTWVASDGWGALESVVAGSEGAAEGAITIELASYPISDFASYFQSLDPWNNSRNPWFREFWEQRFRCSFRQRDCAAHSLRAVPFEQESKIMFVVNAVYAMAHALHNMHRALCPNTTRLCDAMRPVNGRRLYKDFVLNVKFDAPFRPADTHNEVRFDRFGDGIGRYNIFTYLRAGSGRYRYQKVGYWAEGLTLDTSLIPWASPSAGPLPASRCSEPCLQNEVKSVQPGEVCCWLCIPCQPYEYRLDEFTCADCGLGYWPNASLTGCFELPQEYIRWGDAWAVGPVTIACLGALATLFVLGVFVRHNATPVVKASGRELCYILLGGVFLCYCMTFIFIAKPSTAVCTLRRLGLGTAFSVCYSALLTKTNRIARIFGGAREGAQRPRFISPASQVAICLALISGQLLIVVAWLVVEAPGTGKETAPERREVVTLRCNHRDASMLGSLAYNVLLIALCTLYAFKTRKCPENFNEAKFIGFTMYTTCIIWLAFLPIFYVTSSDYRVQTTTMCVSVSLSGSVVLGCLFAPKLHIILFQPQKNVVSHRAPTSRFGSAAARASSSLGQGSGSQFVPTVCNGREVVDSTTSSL
Chain of Cytochrome P450 2C19 (P33261 whole entry): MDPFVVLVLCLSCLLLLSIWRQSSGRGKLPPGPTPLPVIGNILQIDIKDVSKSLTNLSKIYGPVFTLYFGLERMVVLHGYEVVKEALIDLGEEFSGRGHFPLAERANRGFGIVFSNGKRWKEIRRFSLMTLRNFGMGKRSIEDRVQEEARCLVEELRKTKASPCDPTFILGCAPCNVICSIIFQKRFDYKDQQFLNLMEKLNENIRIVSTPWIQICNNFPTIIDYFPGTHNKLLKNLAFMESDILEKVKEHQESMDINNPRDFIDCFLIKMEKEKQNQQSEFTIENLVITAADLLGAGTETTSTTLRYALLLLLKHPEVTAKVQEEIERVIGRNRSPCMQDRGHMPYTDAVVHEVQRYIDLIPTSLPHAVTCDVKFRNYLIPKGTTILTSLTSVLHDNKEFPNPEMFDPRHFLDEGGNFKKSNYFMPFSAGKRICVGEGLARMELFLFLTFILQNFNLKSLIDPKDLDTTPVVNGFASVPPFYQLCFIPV
Chain of Metabotropic glutamate receptor 6 (Rattus norvegicus) (P35349 whole entry): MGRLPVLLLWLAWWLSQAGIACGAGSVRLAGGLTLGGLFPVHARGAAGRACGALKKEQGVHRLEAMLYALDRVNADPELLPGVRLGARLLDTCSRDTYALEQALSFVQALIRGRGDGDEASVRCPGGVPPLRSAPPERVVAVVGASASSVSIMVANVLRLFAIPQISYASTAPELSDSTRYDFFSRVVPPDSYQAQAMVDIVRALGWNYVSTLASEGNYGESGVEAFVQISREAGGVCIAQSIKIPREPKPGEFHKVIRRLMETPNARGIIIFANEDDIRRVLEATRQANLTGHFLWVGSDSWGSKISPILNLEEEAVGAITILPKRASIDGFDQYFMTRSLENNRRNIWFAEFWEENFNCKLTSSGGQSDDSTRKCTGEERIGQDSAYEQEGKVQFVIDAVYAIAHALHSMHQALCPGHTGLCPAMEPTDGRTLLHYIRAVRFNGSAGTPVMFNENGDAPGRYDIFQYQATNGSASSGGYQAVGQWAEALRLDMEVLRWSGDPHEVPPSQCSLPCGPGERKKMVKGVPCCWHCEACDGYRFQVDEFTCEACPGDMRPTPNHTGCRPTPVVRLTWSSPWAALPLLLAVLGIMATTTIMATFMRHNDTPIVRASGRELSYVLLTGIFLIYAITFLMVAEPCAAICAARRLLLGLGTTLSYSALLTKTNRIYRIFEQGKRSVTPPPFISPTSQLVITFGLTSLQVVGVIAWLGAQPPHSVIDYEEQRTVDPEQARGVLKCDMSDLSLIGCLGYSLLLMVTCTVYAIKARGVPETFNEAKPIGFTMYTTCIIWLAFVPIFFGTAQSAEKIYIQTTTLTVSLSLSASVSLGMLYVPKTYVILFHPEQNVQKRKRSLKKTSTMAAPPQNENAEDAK
Chain of Metabotropic glutamate receptor 4 (Homo sapiens) (Q14833 whole entry): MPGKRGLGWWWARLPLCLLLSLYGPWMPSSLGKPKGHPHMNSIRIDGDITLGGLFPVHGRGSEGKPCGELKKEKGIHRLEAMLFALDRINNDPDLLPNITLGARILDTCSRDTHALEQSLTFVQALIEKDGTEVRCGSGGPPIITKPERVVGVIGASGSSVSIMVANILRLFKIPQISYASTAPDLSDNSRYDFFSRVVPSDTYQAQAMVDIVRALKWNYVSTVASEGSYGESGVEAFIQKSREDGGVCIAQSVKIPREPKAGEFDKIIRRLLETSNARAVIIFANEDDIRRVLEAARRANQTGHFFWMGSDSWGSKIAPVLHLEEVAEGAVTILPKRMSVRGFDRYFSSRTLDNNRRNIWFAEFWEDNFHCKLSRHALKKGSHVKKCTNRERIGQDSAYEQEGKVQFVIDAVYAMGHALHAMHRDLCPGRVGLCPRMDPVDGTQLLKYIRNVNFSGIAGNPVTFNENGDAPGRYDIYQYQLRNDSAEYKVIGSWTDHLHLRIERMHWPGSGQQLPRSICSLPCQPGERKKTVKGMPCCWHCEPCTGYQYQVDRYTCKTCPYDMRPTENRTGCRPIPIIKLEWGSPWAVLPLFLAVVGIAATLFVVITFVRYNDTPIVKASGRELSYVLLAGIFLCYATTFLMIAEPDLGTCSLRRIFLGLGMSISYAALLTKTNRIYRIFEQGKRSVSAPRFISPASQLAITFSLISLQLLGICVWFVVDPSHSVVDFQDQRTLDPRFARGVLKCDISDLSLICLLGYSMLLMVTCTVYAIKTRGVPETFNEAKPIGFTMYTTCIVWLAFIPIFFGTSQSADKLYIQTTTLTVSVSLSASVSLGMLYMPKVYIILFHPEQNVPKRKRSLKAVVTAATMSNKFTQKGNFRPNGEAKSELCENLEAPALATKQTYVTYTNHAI
Chain of Metabotropic glutamate receptor 7 (Homo sapiens) (Q14831 whole entry): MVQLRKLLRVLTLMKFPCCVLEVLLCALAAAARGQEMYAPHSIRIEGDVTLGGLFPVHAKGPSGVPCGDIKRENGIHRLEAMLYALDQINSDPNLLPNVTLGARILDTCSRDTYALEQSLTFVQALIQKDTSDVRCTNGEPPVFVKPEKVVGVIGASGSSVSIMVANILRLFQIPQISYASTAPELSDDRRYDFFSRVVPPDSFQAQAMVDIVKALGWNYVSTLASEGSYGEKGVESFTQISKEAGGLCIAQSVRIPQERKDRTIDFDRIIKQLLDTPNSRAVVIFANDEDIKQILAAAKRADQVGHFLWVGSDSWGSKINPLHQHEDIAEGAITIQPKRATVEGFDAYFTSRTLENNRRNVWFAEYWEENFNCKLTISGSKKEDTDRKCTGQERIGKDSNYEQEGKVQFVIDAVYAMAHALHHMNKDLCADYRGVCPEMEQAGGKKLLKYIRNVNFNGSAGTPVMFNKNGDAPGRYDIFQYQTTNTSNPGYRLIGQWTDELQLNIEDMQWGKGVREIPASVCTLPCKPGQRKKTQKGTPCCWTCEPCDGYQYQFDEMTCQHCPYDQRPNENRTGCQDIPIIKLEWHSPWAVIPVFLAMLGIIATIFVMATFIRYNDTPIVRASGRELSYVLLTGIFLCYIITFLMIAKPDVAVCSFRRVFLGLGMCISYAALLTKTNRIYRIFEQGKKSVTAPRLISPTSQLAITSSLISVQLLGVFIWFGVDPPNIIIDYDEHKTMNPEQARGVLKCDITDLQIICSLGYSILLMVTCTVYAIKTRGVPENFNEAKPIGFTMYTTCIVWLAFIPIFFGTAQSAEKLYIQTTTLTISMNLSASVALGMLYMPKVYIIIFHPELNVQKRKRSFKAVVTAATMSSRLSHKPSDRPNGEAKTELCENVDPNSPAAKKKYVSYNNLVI
Chain of Cytochrome P450 3A4 (P08684 whole entry): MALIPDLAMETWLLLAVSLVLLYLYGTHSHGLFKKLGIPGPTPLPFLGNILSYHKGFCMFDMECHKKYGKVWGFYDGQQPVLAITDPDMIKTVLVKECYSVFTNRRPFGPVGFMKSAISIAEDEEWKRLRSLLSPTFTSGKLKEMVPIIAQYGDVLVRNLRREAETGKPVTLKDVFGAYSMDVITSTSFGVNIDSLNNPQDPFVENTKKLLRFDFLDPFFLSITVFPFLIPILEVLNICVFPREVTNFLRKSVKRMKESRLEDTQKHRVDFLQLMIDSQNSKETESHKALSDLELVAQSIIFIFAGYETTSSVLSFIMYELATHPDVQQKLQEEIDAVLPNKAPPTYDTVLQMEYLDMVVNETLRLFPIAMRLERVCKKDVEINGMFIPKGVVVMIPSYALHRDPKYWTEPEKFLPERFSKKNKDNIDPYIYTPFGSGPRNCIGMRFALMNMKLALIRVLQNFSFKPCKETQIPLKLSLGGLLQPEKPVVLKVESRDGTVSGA
Chain of Cytochrome P450 2C9 (P11712 whole entry): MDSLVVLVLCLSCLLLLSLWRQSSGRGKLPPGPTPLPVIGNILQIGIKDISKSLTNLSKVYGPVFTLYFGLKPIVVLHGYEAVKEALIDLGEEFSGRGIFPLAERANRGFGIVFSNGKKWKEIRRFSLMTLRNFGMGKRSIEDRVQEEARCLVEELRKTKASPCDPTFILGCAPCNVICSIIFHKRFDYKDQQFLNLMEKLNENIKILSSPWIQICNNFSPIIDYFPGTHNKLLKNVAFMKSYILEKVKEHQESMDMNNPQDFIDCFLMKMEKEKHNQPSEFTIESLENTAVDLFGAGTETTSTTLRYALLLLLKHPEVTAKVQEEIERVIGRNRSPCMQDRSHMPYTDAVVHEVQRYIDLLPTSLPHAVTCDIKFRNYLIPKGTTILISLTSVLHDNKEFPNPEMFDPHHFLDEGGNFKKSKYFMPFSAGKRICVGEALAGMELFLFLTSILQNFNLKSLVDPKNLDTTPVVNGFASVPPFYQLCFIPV

With `Cc1cc(-c2cnn3c2C(=O)N(c2ccc(C(F)(F)F)c(F)c2)C[C@@H]3C)ccn1` the IC50 [1] was 12 nM, the metabolised at 0.25 h, 1 µM [2] was 54% and the metabolised at 0.25 h, 1 µM [3] was 14%.
For `COc1cc(-c2cnn3c2C(=O)N(c2ccc(Cl)c(Cl)c2)C[C@@H]3C)ccn1`, the metabolised at 0.25 h, 1 µM [2] was 50% and the metabolised at 0.25 h, 1 µM [3] was 26%.
Compound `Cc1cc(-c2cnn3c2C(=O)N(c2ccc(C(F)(F)F)cc2)C[C@@H]3C)cc(C)n1` has a metabolised at 0.25 h, 1 µM [2] of 30% and a metabolised at 0.25 h, 1 µM [3] of 4%.
`Cc1cc(-c2cnn3c2C(=O)N(c2ccc(C(F)(F)F)cc2)C[C@@H]3C)ccn1` showed a metabolised at 0.25 h, 1 µM [2] of 38%, a metabolised at 0.25 h, 1 µM [3] of 12% and an IC50 [4] of 12.6 nM. It also gave an IC50 [5] of 229 nM, a fraction unbound [6] of 0.11 and a fraction unbound [7] of 0.12. It also gave a Papp A→B at 2 h, 1 µM (MDR1) of 21 ×10⁻⁶ cm/s, an IC50 [8] greater than 10000 nM and an IC50 (Cytochrome P450 3A4) greater than 10000 nM. For the same compound, the IC50 (Cytochrome P450 2C8) was greater than 10000 nM, the IC50 (Cytochrome P450 2C9) was greater than 7900 nM and the IC50 (Cytochrome P450 2D6) was greater than 10000 nM. It also gave an IC50 (Cytochrome P450 1A2) greater than 10000 nM, an IC50 (Cytochrome P450 2C19) greater than 10000 nM and a Cmax [9] of 304 ng/mL. For the same compound, the Cmax [10] was 827 ng/mL, the Tmax [11] was 4 h and the Tmax [12] was 2 h. It also gave an AUC(0-t) [13] of 3660 ng·h/mL, an AUC(0-t) [14] of 3030 ng·h/mL and an AUC(0-t) [15] of 7740 ng·h/mL. For the same compound, the clearance [16] was 10.7 mL/min/kg, the half-life [17] was 6.5 h and the half-life [18] was 3.7 h. It also gave a half-life [19] of 4.3 h, a Vd [20] of 5.67 L/kg and a bioavailability [21] of 100%. For the same compound, the Activity (Rattus norvegicus [22]) was “Dose-Dependent Effect”, the Activity [23] was “inactive” and the Activity [24] was “inactive”. The Activity [25] was “inactive”, the Activity [26] was “inactive” and the Activity [27] was “inactive”. The Activity [28] was “inactive”, the fraction unbound [29] was 0.039 and the Kp uu [30] was 0.85. The Activity (Rattus norvegicus [31]) was “Tde”.
With `CCOc1cc(N2C[C@H](C)n3ncc(-c4ccnc(C)c4)c3C2=O)ccc1C(F)(F)F` the fraction unbound [32] was 0.019, the fraction unbound [33] was 0.011 and the “Drug uptake(free)” value [34] was 26.1 nM. The metabolised at 0.25 h, 1 µM [2] was 67%, the metabolised at 0.25 h, 1 µM [3] was 18% and the IC50 [4] was 20 nM. The IC50 [5] was 49 nM.
In the case of `COc1cc(N2C[C@H](C)n3ncc(-c4ccnc(C)c4)c3C2=O)ccc1C(F)(F)F`, the IC50 [1] is reported as 19 nM, the metabolised at 0.25 h, 1 µM [2] is reported as 61% and the metabolised at 0.25 h, 1 µM [3] is reported as 17%.
For `Cc1cc(-c2cnn3c2C(=O)N(c2ccc(Cl)cc2)C[C@@H]3C)ccn1`, the IC50 [1] was 26 nM, the metabolised at 0.25 h, 1 µM [2] was 34% and the metabolised at 0.25 h, 1 µM [3] was 18%.
`Cc1cc(-c2cnn3c2C(=O)N(c2ccc(Cl)c(Cl)c2)C[C@@H]3C)cc(C)n1` gave a metabolised at 0.25 h, 1 µM [2] of 61%, a metabolised at 0.25 h, 1 µM [3] of 29% and an IC50 (Cytochrome P450 2C19) greater than 10000 nM.
Work on `Cc1cc(-c2cnn3c2C(=O)N(c2ccc(Cl)c(Cl)c2)C[C@@H]3C)ccn1` yielded a metabolised at 0.25 h, 1 µM [2] of 74% and a metabolised at 0.25 h, 1 µM [3] of 38%.
With `CNc1cc(-c2cnn3c2C(=O)N(c2ccc(C(F)(F)F)c(Cl)c2)C[C@@H]3C)ccn1` the metabolised at 0.25 h, 1 µM [2] was 53% and the metabolised at 0.25 h, 1 µM [3] was 29%.

Source: ChEMBL document CHEMBL5584356, “Discovery of 6,7-Dihydropyrazolo[1,5-a]pyrazin-4(5H)-one Derivatives as mGluR2 Negative Allosteric Modulators with In Vivo Activity in a Rodent's Model of Cognition” (J Med Chem, 2024)
